Paper PMC12338828, “Evaluation of organotin (IV) dithiocarbamate compounds as potential anti-leukemia agents towards CCRF-CEM (CCL-119) cell line: Cytotoxic, apoptotic, cell cycle and genotoxic study” (PLOS One, 2025)
Several values for one entry are separate records, joined by “and”; a condition that tells them apart may be missing. Identical values can stand only once.

Legend:
CCL-119 cells [1] = test: MTT cytotoxicity assay; details: for cell viability at 0.31 µM / cell viability at 0.63 µM / cell viability at 1.25 µM / cell viability at 2.50 µM / cell viability at 5.00 µM / Selectivity Index (SI): 24 hours; for cell viability at 0.31 µM / cell viability at 0.63 µM / cell viability at 1.25 µM / cell viability at 2.50 µM / cell viability at 5.00 µM: single replicates n1-n3, untreated = 100.00; for cell viability at 2.50 µM: 2.5 µM; for Selectivity Index (SI): IC50 WIL2-NS / IC50 CCL-119; for IC50: read-out: IC50 (µM) CCL-119, 24 hours of exposure, mean ± SEM, n = 3
Experimental: The T-acute lymphoblastic leukemia cell line, CCRF-CEM (CCL-119™), and a non-cancerous cell, WIL2-NS (CRL-8155™), were purchased from the American Type Culture Collection (ATCC). Both are suspension types of cells and were cultured in Roswell Park Memorial Institute Medium 1640 (RPMI-1640) (Sigma-Aldrich), supplemented with 10% Fetal Bovine Serum (FBS) (Capricorn Scientific) and 1% penicillin-streptomycin (Nacalai Tesque) to obtain the complete growth medium and were incubated at 37 °C with a 5% CO2 incubator. Both suspension cells are used for tests when the cells’ passage becomes passage 3–10 (maximum).
All stock solutions of the organotin (IV) dithiocarbamate compounds were prepared at 10 mM and dissolved in dimethyl sulphoxide (DMSO) (ChemAR®). The stock solutions were stored at 4°C; fresh dilutions were made by adding the RPMI-1640 medium before the experiment. The dilution is carried out using the serial dilution method to obtain the desired concentrations, which are 5 µM, 2.5 µM, 1.25 µM, 0.63 µM, 0.32 µM, and 0.16 µM in this study. Vincristine (VCR) is used as a positive control in this study.
Both CCL-119 and WIL2-NS cells were seeded in a 96-well plate at a final concentration of 5 x 10^5 cells/well and treated with 5 µM, 2.5 µM, 1.25 µM, 0.63 µM, 0.32 µM, and 0.16 µM of organotin (IV) dithiocarbamate compound for 24 hours at 37°C with 5% CO2. VCR was used as a positive control in this study, while cells without treatment were used as a negative control. After 24 hours of exposure, 20 µL of MTT (Merck) salt solution was added into each well and incubated for another 4 hours. The plate was wrapped with aluminium foil as MTT salt is light sensitive. After 4 hours, the purple crystal formazan was formed. All the medium was removed carefully from each well, and 200 µL DMSO was added to each well to dissolve the purple formazan crystal. Then, the plates were incubated for an additional 15 minutes. The results were analyzed and recorded using an ELISA microplate reader at 570 nm. The data was then plotted into a graph, and IC50 values were determined.
The selectivity index (SI) is determined by dividing the cytotoxic activity (IC50 value) of each compound on a non-cancerous cell line (WIL2-NS) by the leukemia cell line (CCL-119). […] WIL2- NS cell lines were selected as the comparator because it is a non-cancerous human B lymphoblast cell line, which is like CCL-119 (T-lymphoblastic leukemia), derived from lymphocytes. This choice ensures that comparisons are made between biologically similar cell types, minimizing variability that could arise from differences in tissue origin or lineage.

CCL-119 cells [2] = test: Mode of cell death, Annexin V-FITC/PI staining (flow cytometry); format: cell-based; details: for Early Apoptosis (Q4) / Late Apoptosis (Q2) / Necrosis (Q1) / Viable (Q3): 24 hours at IC50, single replicates n1-n3; for cell death through apoptosis (population of cells): 24 hours, treated at IC50, early + late apoptosis
Experimental: The mode of cell death can be observed through the Annexin V-FITC/PI staining (BD, USA). The result of this test is either apoptosis or necrosis. […] VCR was used as a positive control, while cells without any treatment were used as a negative control. Then, the plate was incubated for 24 hours. After the incubation, the cell suspension in each well was collected into different Eppendorf tubes. The tubes were then centrifuged for 5 minutes at 1500 rpm at 4°C. After the centrifuge, the supernatant in the tubes was removed, and the cell pellets were washed twice with cold PBS. Then, centrifuge the tubes again and remove the supernatant. Next, 100 µL of Annexin V binding buffer was resuspended in each tube, and 5 µL Annexin V-FITC was pipetted into the tube to stain the cells for 15 minutes at room temperature, dark. After that, 5 µL of propidium iodide was piped into the tube for 5 minutes. The staining process is done in dark conditions. Lastly, the sample was transferred into the Falcon tube, and each tube was resuspended in 400 µL of Annexin V binding buffer. The sample was analyzed using a flow cytometer (BD FACS Canto II) within one hour.

CCL-119 cells [3] = test: Cell cycle analysis (PI/RNase staining); format: cell-based; details: for cells in G0/G1 phase / cells in G2/M phase / cells in S phase: 24 hours at IC50, single replicates n1-n3
Experimental: The cells were cultured and seeded in a 6-well plate at 1 x 10^6 cells/mL. VCR was used as a positive control, and untreated cells were used as a negative control in this assay. The concentration of the compounds and VCR was followed by IC50 values that were taken from the MTT assay.
After 24 hours of incubation, all cells in the plate were transferred to the Eppendorf tube and centrifuged for 5 minutes at 4°C at 1500 rpm. After centrifuging, the supernatant was removed, and cells were washed with 500 µL cold PBS three times. The pellet was fixed by using 70% ethanol overnight at −20°C. Next, the samples were stained with 500 µL of PI/RNase staining buffer and incubated for 15 minutes. The samples were then transferred into Falcon tubes. The data was recorded using a flow cytometer and analyzed using ModFit LT software.

CCL-119 cells [4] = test: Alkaline comet assay; format: cell-based; details: for DNA damage class / Tail moment / percentage of DNA intensity in the tail / % DNA intensity: 1 hour of exposure
Experimental: VCR was used as a positive control, and untreated cells were used as a negative control in this assay. The cells were incubated for 1 hour. After incubation, cells in each well were transferred to the Eppendorf tube to centrifuge for 5 minutes at 4°C by using a refrigerated microcentrifuge. The supernatant was removed, and the samples were washed with 1 mL of cold PBS. This process was repeated 3 times. After completion of the process, the supernatant was removed, and the pellet was left for a while on top of the ice while preparing the slide.
About 140 µL of normal melting agar (NMA) is pipetted on top of the fully frosted slide, and a cover slip is put on the agar for 5 minutes or until the agar fully solidifies. After that, the cover slip was removed, and 80 µL of low melting agar (LMA) was added to an Eppendorf tube containing the pellet of cells. The suspension was then transferred into a frosted slide with NMA agar. The cover slip was then put back on top of the frosted slide for 10 minutes or until dry. Next, the slide was transferred into a Coplin jar that contained lysis buffer solution and Triton X-100. The slides were then incubated at 4°C overnight. The slides were arranged on an electrophoresis tank filled with electrophoresis buffer for 20 minutes. Electrophoresis is done for another 20 minutes at 25 V with 300 mA. The slides were washed with a neutralization buffer solution 3 times at a 5-minute time interval. Finally, 30 µL of ethidium bromide (50 µg/mL) was added, and the slide was observed by using fluorescence microscopy (OLYMPUS BX51TR). CometScore software is used to analyze the DNA damage of the cells. The comet assay was performed under alkaline conditions (pH > 13) to detect both single- and double-strand DNA breaks.

WIL2-NS cells = tested on: WIL2-NS cells; set-up: method as in Rasli et al. (2023); details: non-cancerous cells; 24 hours of exposure; graph referred to earlier paper; ref Rasli et al. (2023); cited from earlier work

Structure (SMILES)	cell viability at 0.31 µM (CCL-119 cells [1])	cell viability at 0.63 µM (CCL-119 cells [1])	cell viability at 1.25 µM (CCL-119 cells [1])	cell viability at 2.50 µM (CCL-119 cells [1])	cell viability at 5.00 µM (CCL-119 cells [1])	Selectivity Index (SI) (CCL-119 cells [1])	IC50 (CCL-119 cells [1]) [µM]	Early Apoptosis (Q4) (CCL-119 cells [2])	Late Apoptosis (Q2) (CCL-119 cells [2])	Necrosis (Q1) (CCL-119 cells [2])	Viable (Q3) (CCL-119 cells [2])	cell death through apoptosis (population of cells) (CCL-119 cells [2]) [%]	cells in G0/G1 phase (CCL-119 cells [3])	cells in G2/M phase (CCL-119 cells [3])	cells in S phase (CCL-119 cells [3])	Tail moment (CCL-119 cells [4]; mean ± SEM) [A.U]	percentage of DNA intensity in the tail (CCL-119 cells [4]; mean ± SEM) [%]	% DNA intensity (CCL-119 cells [4]; single replicates n1-n3)	Tail moment (CCL-119 cells [4]; single replicates n1-n3)	IC50 (WIL2-NS cells) [µM]	also measured
CC(C)N(C(=S)[S][Sn]([S]C(=S)N(C(C)C)C(C)C)([c]1ccccc1)[c]1ccccc1)C(C)C [ODTC 1, diphenyltin (IV) diisopropyl dithiocarbamate]	68.12% and 70.47% and 62.95%	46.30% and 50.11% and 43.95%	30.25% and 39.66% and 27.67%	11.95% and 23.57% and 13.38%	8.78% and 22.56% and 11.96%	2.48	0.56 ± 0.04	45.2% and 37.2% and 40.2%	34.7% and 29.3%	0.2% and 1% and 0.6%	28.4% and 29.5% and 29.9%	77.6	44.44% and 52.78% and 46.11%	0.17% and 1.28% and 8.00%	55.38% and 45.94% and 45.89%	68.58 ± 3.31	27.50 ± 2.36	31.5757% and 23.3927% and 27.534%	74.8179 A.U and 67.3969 A.U and 63.5391 A.U	1.39 ± 0.46	Phases of Cell Cycle Arrest (CCL-119 cells [3]; 24 hours at IC50 concentrations): S phase; DNA damage / genotoxic effect (in words) (CCL-119 cells [4]): highest genotoxic effects; DNA damage class (CCL-119 cells [4]): class 3
C=CCN(CC=C)C(=S)[S][Sn]([S]C(=S)N(CC=C)CC=C)([c]1ccccc1)[c]1ccccc1 [ODTC 2, diphenyltin (IV) diallyl dithiocarbamate]	49.85% and 27.71% and 26.10%	26.34% and 15.19% and 17.94%	29.61% and 16.46% and 16.39%	28.76% and 19.14% and 15.77%	31.88% and 17.53% and 10.93%	2.36	0.22 ± 0.04	36.1% and 39.2% and 31.1%	31.5% and 32.9% and 28.1%	1% and 0.6%	31.4% and 27% and 40.2%	66.3	51.19% and 55.53% and 53.01%	1.93% and 1.68% and 4.38%	46.88% and 42.78% and 42.61%	6.83 ± 2.58	10.18 ± 0.89	9.179% and 9.419% and 11.9522%	5.421 A.U and 3.237 A.U and 11.8306 A.U	0.52 ± 0.14	DNA damage / genotoxic effect (in words) (CCL-119 cells [4]): caused detectable DNA damage; DNA damage class (CCL-119 cells [4]): class 2
CC(C)N(C(=S)[S][Sn]([c]1ccccc1)([c]1ccccc1)[c]1ccccc1)C(C)C [ODTC 3, triphenyltin (IV) diisopropyl dithiocarbamate]	47.07% and 58.65% and 40.35%	40.17% and 50.04% and 42.00%	42.27% and 42.45% and 31.66%	35.57% and 24.06% and 25.57%	27.21% and 27.19% and 34.26%	3.13		35.9% and 47.6% and 15.9%	10.8% and 9% and 12%	0.1% and 0% and 1.5%	53.2% and 43.4% and 70.6%		9.54% and 24.65% and 21.14%	90.46% and 75.18% and 78.7%	0% and 0.17% and 0.16%	22.25 ± 0.93	10.79 ± 0.72	9.366% and 11.3439% and 11.6624%	20.8823 A.U and 21.8477 A.U and 24.0274 A.U	0.75 ± 0.07	
